Laboratory results: patent US20050272692A1, “Sucrose ester compounds useful as fungicides” (priority 2004, published 2005)
Where two headings read alike, the source gives them in different places.

How the values were obtained:
Stachybotrys = settings: 1000 ppm, lab trial
Rhizopus = settings: 1000 ppm, lab trial
Penicillium = settings: lab trial
Stachybotrys chartarum [1] = settings: for growth during incubation period: 144 hour incubation, all concentrations; for growth: all concentrations (400 to 2000 ppm), malt extract agar, 25° C.
Penicillium chrysogenum = settings: low concentrations, malt extract agar, 25° C., 144 hours
Procedure: (§1) For each fungus tests were conducted on malt extract agar that was amended with five concentrations of sucrose octanoate. The control medium was standard malt extract agar. The concentrations were prepared based on 100% active ingredient. The parts per million were calculated afterwards to account for a concentration of 40% active ingredient. All fungi in the tests were incubated at 25° C. for 144 hours.
(§2) For each fungi tests were conducted on malt extract agar that was amended with five concentrations of sorbitol octanoate. The control medium was standard malt extract agar. The concentrations were prepared based on 100% active ingredient. The parts per million were calculated afterwards to account for a concentration of 40% active ingredient. All fungi in the tests were incubated at 25° C. for 144 hours.

Aspergillus flavus = settings: for growth: all concentrations, malt extract agar, 25° C., 144 hours
Procedure: as §1, §2

Aspergillus parasiticus = settings: for growth: all concentrations, malt extract agar, 25° C., 144 hours
Procedure: as §1, §2

Stachybotrys chartarum [2] = test system: Stachybotrys chartarum
three different fungi = settings: 2000 ppm, lab trial
Rhizopus stolonifer = settings: for growth during incubation period: 144 hour incubation
Procedure: as §1, §2

[3] = 2000 ppm, d.f=2, p<0.05, unpaired one-tailed T-tests

sorbitol octanoate
growth of fungus (Stachybotrys): prevented the growth
growth of fungus (Rhizopus): prevented the growth
growth of fungus (Penicillium; 2000 ppm): some growth
growth during incubation period (Stachybotrys chartarum [1]): No growth
growth (Stachybotrys chartarum [1]): inhibited
growth (Penicillium chrysogenum): able to grow, although slowly compared to the control
growth (Aspergillus flavus): able to grow
growth (Aspergillus parasiticus): able to grow

Zinc Mono-Sucrose Succinate [Compound A]
reduction of radial growth (Pythium ultimum; 1000 ppm): 92.3%
radial growth diameter (Pythium ultimum; 1000 ppm, control 85 mm): 6.6 mm
growth (Pythium ultimum; 5000 ppm): no significant level of growth
reduction of radial growth (Rhizoctonia solani; 1000 ppm): 75.4%
radial growth diameter (Rhizoctonia solani; 1000 ppm, control 62.3 mm): 15.3 mm
growth measurement (Rhizoctonia solani; 5000 ppm, very limited growth): 10 mm
reduction of radial growth (Fusarium graminearum; 1000 ppm): 73%
radial growth diameter (Fusarium graminearum; 1000 ppm, control 67.6 mm): 18.3 mm
inhibition (Fusarium graminearum; 5000 ppm): no additional inhibition over the 1000-ppm assay
reduction of radial growth (Alternaria sp; 1000 ppm): 64.9%
radial growth diameter (Alternaria sp; 1000 ppm, control 28.5 mm): 10 mm
growth (Alternaria sp; 5000 ppm): no significant level of growth
reduction of radial growth (Mucor sp; 1000 ppm): 74.4%
radial growth diameter (Mucor sp; 1000 ppm, control 66.5 mm): 17 mm
growth (Mucor sp; 5000 ppm): no significant level of growth
reduction of radial growth (Stachybotrys chartarum [2]; 1000 ppm): 66.0%
sporulation (Stachybotrys chartarum [2]; 1000 ppm medium, high levels on control medium): reduced to low levels
radial growth diameter (Stachybotrys chartarum [2]; 1000 ppm, control medium 19.7 mm): 6.7 mm
growth measurement (Stachybotrys chartarum [2]; 5000 ppm, very limited growth): 2.7 mm
reduction of radial growth (Aspergillus niger; 1000 ppm): 65.6%
sporulation (Aspergillus niger; 1000 ppm medium, also high on control medium): high
radial growth diameter (Aspergillus niger; 1000 ppm, control medium 63.0 mm): 21.7 mm
growth (Aspergillus niger; 5000 ppm): no significant level of growth

sucrose octanoate
growth of fungi (three different fungi): prevented the growth
growth of fungus (Stachybotrys): prevented the growth
growth of fungus (Rhizopus): prevented the growth
growth of fungus (Penicillium; 1000 ppm): some growth
growth during incubation period (Rhizopus stolonifer; all concentrations tested): no growth
growth during incubation period (Rhizopus stolonifer; all concentrations with the exception of 400 ppm level): no growth
growth (Rhizopus stolonifer; all concentrations tested (400 to 2000 ppm), malt extract agar, 25° C.): inhibited
growth during incubation period (Stachybotrys chartarum [1]): No growth
growth (Stachybotrys chartarum [1]): inhibited
growth (Penicillium chrysogenum): able to grow, although slowly compared to the control
growth compared with control plates (Aspergillus flavus; [3]): significantly less
growth (Aspergillus flavus): able to grow
growth compared with control plates (Aspergillus parasiticus; [3]): significantly less
growth (Aspergillus parasiticus): able to grow
